Experimental data taken from US12187773B2, “Modified GIP peptide analogues” (Antag Therapeutics ApS, priority 2018, dated 2025).
*1 amine or outer side, *2 acyl side, *3 side chain or, on linkers, in order; H or OH if unused. Where a SMILES comes first, the peptide text is derived from it. Side-chain parts run from the residue outwards. [ ]: non-standard residue; d: D form. The star is where a group is joined. C18 diacid = O=C(O)CCCCCCCCCCCCCCCCC(=O)*; C16 diacid = O=C(O)CCCCCCCCCCCCCCC(=O)*; γGlu = O=C(O)[C@H](CCC(=O)[*:2])N[*:1]; pGlu = O=C1CC[C@@H](C(=O)O)N1; AEEA = NCCOCCOCC(=O)O

Experiments:
Format in all cases: cell-based
GLP2 receptor (GLP2R) = target: T1, GLP2 receptor (GLP2R) (Homo sapiens, UniProt O95838); experiment: cAMP assay - selectivity, antagonism at GLP2 receptor; conditions: Table 3B; COS-7 cells; agonist GLP2
T1 construct: expressed in transfected cells; host or cells: COS-7 (transient)
T1 sequence (O95838 1-553): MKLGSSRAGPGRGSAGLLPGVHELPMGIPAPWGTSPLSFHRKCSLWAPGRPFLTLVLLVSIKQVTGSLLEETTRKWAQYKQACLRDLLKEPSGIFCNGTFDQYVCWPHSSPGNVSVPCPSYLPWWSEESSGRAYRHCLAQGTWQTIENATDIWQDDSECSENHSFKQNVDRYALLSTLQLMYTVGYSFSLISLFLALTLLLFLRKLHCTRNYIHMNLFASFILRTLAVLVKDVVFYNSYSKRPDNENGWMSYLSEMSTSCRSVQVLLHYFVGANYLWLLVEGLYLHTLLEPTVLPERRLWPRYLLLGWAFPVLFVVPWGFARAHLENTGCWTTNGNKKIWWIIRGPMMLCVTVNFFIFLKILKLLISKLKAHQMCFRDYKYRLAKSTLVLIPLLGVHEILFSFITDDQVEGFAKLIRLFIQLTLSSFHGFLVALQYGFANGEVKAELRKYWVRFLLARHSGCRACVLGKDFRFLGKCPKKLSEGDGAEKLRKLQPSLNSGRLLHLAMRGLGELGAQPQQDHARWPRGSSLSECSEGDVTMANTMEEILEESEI
Procedure: (§1) Transient transfected COS-7 cells expressing the either of the GLP1 receptor (GLP1R), GLP2 receptor (GLP2R), glucagon receptor (GcgR) or secretin receptor (SCTR) were seeded in white 96-well plates with a density of 3.5*10^4/well. The day after, the cells were washed twice with Hepes buffered saline (HBS) buffer and incubated with HBS and 1 mM 3-isobutyl-1-methylxanthine (IBMX) for 30 min at 37° C. To test for agonistic properties, ligands were added and incubated for 30 min at 37° C. In order to test for antagonistic properties, the cells were preincubated with the antagonists for 10 min prior to the addition the natural agonist for the expressed receptor (GLP1 for GLP1R expressing cells, GLP2 for GLP2R expressing cells, glucagon for the GcgR and secretin for the SCTR) and subsequent incubated for 20 additional min. […] The HitHunter™ cAMP XS assay (DiscoveRx) was carried out according to the manufacturer's instructions.

secretin receptor (SCTR) = target: T2, secretin receptor (SCTR) (Homo sapiens, UniProt P47872); experiment: cAMP assay - selectivity, antagonism at secretin receptor; conditions: Table 3B; COS-7 cells; agonist secretin
T2 construct: expressed in transfected cells; host or cells: COS-7 (transient)
T2 sequence (P47872 23-440, species assumed): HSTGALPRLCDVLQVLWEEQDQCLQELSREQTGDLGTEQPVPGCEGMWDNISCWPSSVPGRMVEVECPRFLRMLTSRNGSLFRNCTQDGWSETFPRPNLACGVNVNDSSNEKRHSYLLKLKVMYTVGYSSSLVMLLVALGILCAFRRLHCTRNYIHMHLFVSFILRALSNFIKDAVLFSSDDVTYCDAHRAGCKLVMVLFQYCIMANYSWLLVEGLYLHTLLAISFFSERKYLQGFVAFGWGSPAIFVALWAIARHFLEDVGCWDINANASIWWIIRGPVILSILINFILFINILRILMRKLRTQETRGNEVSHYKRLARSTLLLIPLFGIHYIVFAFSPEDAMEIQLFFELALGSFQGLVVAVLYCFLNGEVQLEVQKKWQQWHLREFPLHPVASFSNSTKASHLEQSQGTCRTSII
Procedure: as §1

human GIP receptor [1] = target: T3, human GIP receptor (Homo sapiens, UniProt P48546); experiment: cAMP antagonism (CisBio cAMP Dynamic 2 HTRF assay); design: pCMV-Script vector
T3 sequence (P48546 22-466): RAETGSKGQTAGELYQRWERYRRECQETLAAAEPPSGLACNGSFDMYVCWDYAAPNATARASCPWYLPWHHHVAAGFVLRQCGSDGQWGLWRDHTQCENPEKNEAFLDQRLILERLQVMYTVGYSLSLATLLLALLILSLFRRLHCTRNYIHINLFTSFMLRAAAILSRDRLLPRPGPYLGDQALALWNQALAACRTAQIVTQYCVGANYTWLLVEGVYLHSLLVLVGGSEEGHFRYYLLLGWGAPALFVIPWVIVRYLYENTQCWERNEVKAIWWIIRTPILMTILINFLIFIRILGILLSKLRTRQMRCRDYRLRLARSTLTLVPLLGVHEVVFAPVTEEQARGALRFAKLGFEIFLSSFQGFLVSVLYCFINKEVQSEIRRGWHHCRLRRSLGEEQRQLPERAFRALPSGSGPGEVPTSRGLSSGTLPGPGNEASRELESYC
In short: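 Four-parameter fits of cAMP dose-response gave pIC50. cAMP fall was quantified by HTRF competition, ratio 665/620 nm after 60 min at room temperature, against a cAMP standard curve.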

GLP1 receptor (GLP1R) = target: T4, GLP1 receptor (GLP1R) (Homo sapiens, UniProt P43220); experiment: cAMP assay - selectivity, antagonism at GLP1 receptor; conditions: Table 3A; COS-7 cells; agonist GLP1 at 50-80% of maximal cAMP
T4 construct: expressed in transfected cells; host or cells: COS-7 (transient)
T4 sequence (P43220 24-463, species assumed): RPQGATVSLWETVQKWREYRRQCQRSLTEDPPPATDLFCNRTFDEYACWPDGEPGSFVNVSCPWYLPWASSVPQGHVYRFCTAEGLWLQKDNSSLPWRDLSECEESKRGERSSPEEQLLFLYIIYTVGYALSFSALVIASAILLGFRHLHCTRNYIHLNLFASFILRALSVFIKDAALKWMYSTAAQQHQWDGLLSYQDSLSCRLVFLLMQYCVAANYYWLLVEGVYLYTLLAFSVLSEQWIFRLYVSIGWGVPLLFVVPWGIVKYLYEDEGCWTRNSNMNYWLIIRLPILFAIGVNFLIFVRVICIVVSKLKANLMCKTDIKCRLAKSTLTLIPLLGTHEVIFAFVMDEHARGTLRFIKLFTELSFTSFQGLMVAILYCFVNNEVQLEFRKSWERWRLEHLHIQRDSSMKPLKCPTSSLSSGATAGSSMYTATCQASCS
Procedure: as §1

human GIP receptor [2] = target: T3, human GIP receptor; experiment: cAMP agonism (CisBio cAMP Dynamic 2 HTRF assay); conditions: HEK293, read-out: cAMP agonism, % Efficacy, Table 1C, HEK-293 cells
Procedure: To test for agonistic properties at the GIP receptor, compounds were diluted and added to cells as described above and incubated for 30 min at 37° C. The resulting increase in intracellular cAMP was determined using the CisBio cAMP Dynamic 2 HTRF Assay Kit as described above.

glucagon receptor (GcgR) = target: T5, glucagon receptor (GcgR) (Homo sapiens, UniProt P47871); experiment: cAMP assay - selectivity, antagonism at glucagon receptor; conditions: Table 3A; COS-7 cells; agonist glucagon at 50-80% of maximal cAMP
T5 construct: expressed in transfected cells; host or cells: COS-7 (transient)
T5 sequence (P47871 26-477, species assumed): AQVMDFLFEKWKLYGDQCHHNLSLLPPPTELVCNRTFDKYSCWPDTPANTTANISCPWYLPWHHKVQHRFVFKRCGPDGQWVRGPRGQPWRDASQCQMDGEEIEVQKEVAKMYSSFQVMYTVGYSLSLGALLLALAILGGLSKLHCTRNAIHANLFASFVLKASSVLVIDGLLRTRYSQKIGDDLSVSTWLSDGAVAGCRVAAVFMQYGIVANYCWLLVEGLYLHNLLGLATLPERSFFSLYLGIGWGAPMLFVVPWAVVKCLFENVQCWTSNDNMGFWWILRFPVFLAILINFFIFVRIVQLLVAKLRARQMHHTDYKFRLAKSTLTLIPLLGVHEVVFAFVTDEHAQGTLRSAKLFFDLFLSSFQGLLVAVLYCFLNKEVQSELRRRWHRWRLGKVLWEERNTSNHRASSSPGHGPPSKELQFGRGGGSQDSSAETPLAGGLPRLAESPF
Procedure: as §1

[3] = GIPR, Antagonism, nM, Table 3C, CisBio assay
[4] = Table 1C, CisBio, HEK-293 cells
[5] = cAMP antagonism, nM (IC50), Table 1C, CisBio, HEK-293 cells, agonist GIP1-42 at EC50

CC[C@H](C)[C@H](NC(=O)[C@H](CO)NC(=O)[C@H](Cc1ccc(O)cc1)NC(=O)[C@H](CC(=O)O)NC(=O)[C@H](CO)NC(=O)[C@@H](NC(=O)[C@H](Cc1ccccc1)NC(=O)[C@@H](NC(=O)CNC(=O)[C@@H]1CCC(=O)N1)[C@@H](C)O)[C@@H](C)CC)C(=O)N[C@@H](C)C(=O)N[C@@H](CCSC)C(=O)N[C@@H](CC(=O)O)C(=O)N[C@@H](CCCNC(=N)N)C(=O)N[C@H](C(=O)N[C@@H](CCCCNC(=O)COCCOCCNC(=O)COCCOCCNC(=O)COCCOCCNC(=O)CC[C@H](NC(=O)CCCCCCCCCCCCCCCCC(=O)O)C(=O)O)C(=O)N[C@@H](CCC(N)=O)C(=O)N[C@@H](CCC(N)=O)C(=O)N[C@@H](CC(=O)O)C(=O)N[C@@H](Cc1ccccc1)C(=O)N[C@H](C(=O)N[C@@H](CC(N)=O)C(=O)N[C@@H](Cc1c[nH]c2ccccc12)C(=O)N[C@@H](CC(C)C)C(=O)N[C@@H](CC(C)C)C(=O)N[C@@H](C)C(=O)N[C@@H](CCC(N)=O)C(=O)N[C@@H](CCCNC(=N)N)C(N)=O)C(C)C)[C@@H](C)CC [AT382] ([pGlu]GTFISDYSIAMDRIK([AEEA-AEEA-AEEA-γGlu-C18 diacid])QQDFVNWLLAQR-NH2)
GLP-2R, Antagonism (GLP2 receptor (GLP2R)): No antagonism | Secretin R, Antagonism (secretin receptor (SCTR)): No antagonism | IC50 (human GIP receptor [1]; [3]): 25.1 nM | cAMP antagonism, % inhib (human GIP receptor [1]; [4]): 83% | GIPR, Antagonism, % inhib (human GIP receptor [1]; Table 3C, CisBio assay): 83% | IC50 (human GIP receptor [1]; [5]): 25.1 nM | GLP-1R, Antagonism, nM (GLP1 receptor (GLP1R)): No antagonism | Emax (human GIP receptor [2]): 0% | Glucagon R, Antagonism, nM (glucagon receptor (GcgR)): No antagonism

CC[C@H](C)[C@H](NC(=O)[C@H](CO)NC(=O)[C@H](Cc1ccc(O)cc1)NC(=O)[C@H](CC(=O)O)NC(=O)[C@H](CO)NC(=O)[C@@H](NC(=O)[C@H](Cc1ccccc1)NC(=O)[C@@H](NC(=O)CNC(=O)[C@@H](N)CO)[C@@H](C)O)[C@@H](C)CC)C(=O)N[C@@H](C)C(=O)N[C@@H](CCSC)C(=O)N[C@@H](CC(=O)O)C(=O)N[C@@H](CCCNC(=N)N)C(=O)N[C@H](C(=O)N[C@@H](CCCCNC(=O)COCCOCCNC(=O)COCCOCCNC(=O)COCCOCCNC(=O)CC[C@H](NC(=O)CCCCCCCCCCCCCCC(=O)O)C(=O)O)C(=O)N[C@@H](CCC(N)=O)C(=O)N[C@@H](CCC(N)=O)C(=O)N[C@@H](CC(=O)O)C(=O)N[C@@H](Cc1ccccc1)C(=O)N[C@H](C(=O)N[C@@H](CC(N)=O)C(=O)N[C@@H](Cc1c[nH]c2ccccc12)C(=O)N[C@@H](CC(C)C)C(=O)N[C@@H](CC(C)C)C(=O)N[C@@H](C)C(=O)N[C@@H](CCC(N)=O)C(=O)N[C@@H](CCCNC(=N)N)C(N)=O)C(C)C)[C@@H](C)CC [AT383] (H-SGTFISDYSIAMDRIK([AEEA-AEEA-AEEA-γGlu-C16 diacid])QQDFVNWLLAQR-NH2; N-terminus assumed)
GLP-2R, Antagonism (GLP2 receptor (GLP2R)): No antagonism | Secretin R, Antagonism (secretin receptor (SCTR)): No antagonism | IC50 (human GIP receptor [1]; [3]): 12.6 nM | cAMP antagonism, % inhib (human GIP receptor [1]; [4]): 89% | GIPR, Antagonism, % inhib (human GIP receptor [1]; Table 3C, CisBio assay): 89% | IC50 (human GIP receptor [1]; [5]): 12.6 nM | GLP-1R, Antagonism, nM (GLP1 receptor (GLP1R)): No antagonism | Emax (human GIP receptor [2]): 0% | Glucagon R, Antagonism, nM (glucagon receptor (GcgR)): No antagonism

CC[C@H](C)[C@H](NC(=O)[C@H](CO)NC(=O)[C@H](Cc1ccc(O)cc1)NC(=O)[C@H](CC(=O)O)NC(=O)[C@H](CO)NC(=O)[C@@H](NC(=O)[C@H](Cc1ccccc1)NC(=O)[C@@H](NC(=O)CNC(=O)[C@@H](N)CO)[C@@H](C)O)[C@@H](C)CC)C(=O)N[C@@H](C)C(=O)N[C@@H](CCSC)C(=O)N[C@@H](CC(=O)O)C(=O)N[C@@H](CCCNC(=N)N)C(=O)N[C@H](C(=O)N[C@@H](CCCCNC(=O)COCCOCCNC(=O)COCCOCCNC(=O)CC[C@H](NC(=O)CCCCCCCCCCCCCCCCC(=O)O)C(=O)O)C(=O)N[C@@H](CCC(N)=O)C(=O)N[C@@H](CCC(N)=O)C(=O)N[C@@H](CC(=O)O)C(=O)N[C@@H](Cc1ccccc1)C(=O)N[C@H](C(=O)N[C@@H](CC(N)=O)C(=O)N[C@@H](Cc1c[nH]c2ccccc12)C(=O)N[C@@H](CC(C)C)C(=O)N[C@@H](CC(C)C)C(=O)N[C@@H](C)C(=O)N[C@@H](CCC(N)=O)C(=O)N[C@@H](CCCNC(=N)N)C(N)=O)C(C)C)[C@@H](C)CC [AT384] (H-SGTFISDYSIAMDRIK([AEEA-AEEA-γGlu-C18 diacid])QQDFVNWLLAQR-NH2; N-terminus assumed)
GLP-2R, Antagonism (GLP2 receptor (GLP2R)): No antagonism | Secretin R, Antagonism (secretin receptor (SCTR)): No antagonism | IC50 (human GIP receptor [1]; [3]): 54.1 nM | cAMP antagonism, % inhib (human GIP receptor [1]; [4]): 97% | GIPR, Antagonism, % inhib (human GIP receptor [1]; Table 3C, CisBio assay): 97% | IC50 (human GIP receptor [1]; [5]): 54.1 nM | GLP-1R, Antagonism, nM (GLP1 receptor (GLP1R)): No antagonism | Emax (human GIP receptor [2]): 0% | Glucagon R, Antagonism, nM (glucagon receptor (GcgR)): No antagonism

CC[C@H](C)[C@H](NC(=O)[C@H](CO)NC(=O)[C@H](Cc1ccc(O)cc1)NC(=O)[C@H](CC(=O)O)NC(=O)[C@H](CO)NC(=O)[C@@H](NC(=O)[C@H](Cc1ccccc1)NC(=O)[C@@H](NC(=O)CNC(=O)[C@@H](N)CO)[C@@H](C)O)[C@@H](C)CC)C(=O)N[C@@H](C)C(=O)N[C@@H](CCSC)C(=O)N[C@@H](CC(=O)O)C(=O)N[C@@H](CCCNC(=N)N)C(=O)N[C@H](C(=O)N[C@@H](CCCCNC(=O)COCCOCCNC(=O)COCCOCCNC(=O)COCCOCCNC(=O)CC[C@H](NC(=O)CCCCCCCCCCCCCCCCC(=O)O)C(=O)O)C(=O)N[C@@H](CCC(N)=O)C(=O)N[C@@H](CCC(N)=O)C(=O)N[C@@H](CC(=O)O)C(=O)N[C@@H](Cc1ccccc1)C(=O)N[C@H](C(=O)N[C@@H](CC(N)=O)C(=O)N[C@@H](Cc1c[nH]c2ccccc12)C(=O)N[C@@H](CC(C)C)C(=O)N[C@@H](CC(C)C)C(=O)N[C@@H](C)C(=O)N[C@@H](CCC(N)=O)C(=O)N[C@@H](CCCNC(=N)N)C(N)=O)C(C)C)[C@@H](C)CC [AT385] (H-SGTFISDYSIAMDRIK([AEEA-AEEA-AEEA-γGlu-C18 diacid])QQDFVNWLLAQR-NH2; N-terminus assumed)
GLP-2R, Antagonism (GLP2 receptor (GLP2R)): No antagonism | Secretin R, Antagonism (secretin receptor (SCTR)): No antagonism | IC50 (human GIP receptor [1]; [3]): 43 nM | cAMP antagonism, % inhib (human GIP receptor [1]; [4]): 70% | GIPR, Antagonism, % inhib (human GIP receptor [1]; Table 3C, CisBio assay): 70% | IC50 (human GIP receptor [1]; [5]): 43 nM | GLP-1R, Antagonism, nM (GLP1 receptor (GLP1R)): No antagonism | Emax (human GIP receptor [2]): 3% | Glucagon R, Antagonism, nM (glucagon receptor (GcgR)): No antagonism
